Test results as given in patent publication US12275795B2, “Binding molecules against BCMA and uses thereof” (NOVARTIS AG, priority 2018, dated 2025).

How the values were obtained:
KMS11-luc cells = assay: RTCC assay of bivalent AB3 in combination with GSI (8x8 matrix); type: cell-based, human; conditions: for shift of bivalent AB3 response curves with increasing GSI concentration: combination with bivalent AB3
Source text: Human T cells were isolated from peripheral blood of healthy human donors. First, peripheral blood mononuclear cells (PBMCs) were fractionated from donor blood using a Ficoll-Paque PLUS (GE Healthcare #17-1440-02) density gradient. T-cells were then isolated from PBMCs by negative selection according to manufacturer's recommended protocol (Miltenyi #130-096-535). The isolated T-cells were further expanded using Human T-Activator CD3/CD28 Dynabeads (Gibco #11132D) for nine days, then debeaded magnetically and stored as viable frozen aliquots in liquid nitrogen. The expanded T cells were used as effector T cells in RTCC assays where they were thawed from frozen aliquots, counted and used immediately at an Effector:Target (E:T) cell ratio of 3:1.
The target MM cell line KMS11 was transduced to constitutively express luciferase, which was used to measure cell viability/survival. KMS11 cells were pelleted and resuspended in fresh media immediately prior to plating to remove any basal level of shed BCMA that can have been present. 2,500 KMS11-luc target cells in 25 μL TCM were added to wells of 384-well plates. 50 nL of serially diluted bivalent AB3 and GSI solutions (LY411575, PR03084014, and BMS0708163) were acoustically dispensed to corresponding wells of the assay plates. 7,500 expanded T cells, as described above, were added to corresponding wells of assay plate in 20 μL TCM. The assay was incubated at 37° C./5% CO2 for 20 hr, followed by measurement of luciferase activity to indicate target cell viability (BrightGlo, Promega #E2650) following manufacturer's protocols. Target cells only (KMS11) without T cells or antibodies serve as control and represent 100% luciferase activity (100% viability). Data were plotted and analyzed using Spotfire, where EC50 values were calculated using sigmoidal, 4-parameter non-linear regression curve fit.
Data from bivalent AB3 and GSI combinations from Example 11 (FIG. 24) were plotted and analyzed using Spotfire, where EC50 values were calculated using sigmoidal, 4-parameter non-linear regression curve fit.

sBCMA from KMS11 cells = assay: Time course of shed BCMA (sBCMA) by ELISA after GSI treatment; type: cell-based, human; conditions: 2 nM LY411575 or 200 nM PF03084014, 42-hr time course
Experimental: (§1) KMS11 cells were cultured in a 6 well plate at 4×10^6 cells/well in 4 mL of RPMI1640 supplemented with 20% FBS (Gibco #11875-085, Seradigm #1500-500) per well. GSI stock solutions were prepared in DMSO at 10 mM, and added to the cells at final concentrations of 2 nM for LY411575 (Sigma #SML0506) or 200 nM for PF03084014 (Selleckchem #S8018) respectively. Cells were incubated at 37° C./5% CO2, and samples were collected at the following time points: 0, 1, 2, 4, 6, 8, 12, 18, 24, 30 and 42 hr. Collected samples were evaluated for BCMA expression by ELISA and flow cytometry as outline below.
(§2) A pre-treatment study was conducted as above except that KMS11 cells were treated overnight (22 hr) with only LY411575. Cells were washed twice with 3 volumes of growth medium, and re-plated with fresh growth medium without the GSI to the original 4 mL volume. […]
sBCMA levels in supernatants collected and frozen at the various timepoints were determined by ELISA following vendor supplied protocol (R&D Systems #DY193). […] Quantified values as determined by the kit were divided by 5.5 to correct for a molecular mass difference between BCMA-Fc fusion protein used in the kit as a standard curve (32,554.6 Da) and the mass of endogenously shed BCMA extra-cellular domain (5,899.3 Da). […]

mBCMA on KMS11 cells = assay: Time course of membrane BCMA (mBCMA) by flow cytometry after GSI treatment; type: cell-based, human; conditions: 2 nM LY411575 or 200 nM PF03084014, 42-hr time course
Experimental: as §1, §2
For each collected sample, cells were pelleted by centrifugation. […] Samples from all timepoints were analyzed together by flow cytometry on a BD LSR Fortessa instrument. […]
Where receptor density of BCMA was provided, the anti-BCMA antibody binding capacity (ABC) on KMS11 cells was determined using Quantum Simply Cellular beads (Bangs Laboratories #815) following vendor supplied protocol. The ABC is an estimate of the quantity of receptors per cell.

mBCMA in KMS11 xenograft = assay: In vivo GSI treatment, membrane BCMA on tumor cells by flow cytometry; set-up: species or system NSG mice; conditions: 150 mg/kg BID for 5 days
Experimental: On Day 0, KMS11-Luc cells were harvested and suspended in Hanks Balanced Salt Solution (HBSS) and 50% matrigel solution at a concentration of 25×10^6 cells/mL. Female NOD.Cg-Prkdc^scidII2rg^tm1Wji/SzJ mice (NSG mice) at ˜6 weeks old (Jackson Laboratories, ME, USA), were implanted sub-cutaneously (SQ) with 200 μL of the cell suspension to deliver 5×10^6 KMS11-Luc cells SQ in the right flank. Seven days following tumor inoculation, each mouse received an adoptive transfer (AdT) of 10×10^6 of peripheral blood mononuclear cells (PBMCs) in 100 μL via IV injection in the lateral tail vein. The PBMCs were previously isolated from a human leukopak, frozen and stored in Cryostor10 media in vapor phase liquid Nitrogen tank until use. Immediately prior to AdT, PBMCs were thawed and suspended at a concentration of 100×10^6 cells/ml in Hanks Balanced Salt Solution (HBSS). […] To obtain single cell suspensions from excised tumors, the tissues were minced with scissors followed by mechanical homogenization in dissociation buffer containing RPMI (Gibco, Life Technologies) with Liberase™ research grade collagenase (Roche) and DNase I recombinase (Roche) using the GentleMAX (Miltenyi). Following a 5 minute incubation at 37° C. in a water or bead bath, the homogenates were quenched with 10% FBS and filtered on a 70-μM sieve (352350, Falcon). The concentration of single cell suspensions were measured on the Vi-Cell (Beckman Coulter), and cells were pelleted by centrifugation for 5 minutes at 1200 rpm. The supernatants were discarded and cell pellets were resuspended in 400 μL of RPMI (Gibco, Life Technologies). Tumor cells were plated in a volume of 100 μL/well at a cell density of 500,000 to 2 million/well. For cell surface staining, live/dead stain was added to plated samples in DPBS and incubated for 30 minutes. […] All samples were analyzed together by flow cytometry at the completion of the study. […]

[1] = test system: sBCMA in KMS11 xenograft model serum; assay: In vivo GSI treatment, shed BCMA in serum by ELISA; set-up: species or system NSG mice; conditions: 150 mg/kg BID for 5 days
Experimental: sBCMA levels in supernatants collected and frozen at the various timepoints were determined by ELISA following vendor supplied protocol (R&D Systems #DY193). Briefly, recombinant human BCMA-Fc protein was included in the kit, and used to generate a standard curve. Collected samples were assayed and sBCMA concentrations extrapolated from the standard curve. […] The results were plotted in Tibco Spotfire or Graphpad Prism against the concentration of GSI. On Day 0, KMS11-Luc cells were harvested and suspended in Hanks Balanced Salt Solution (HBSS) and 50% matrigel solution at a concentration of 25×10^6 cells/mL. Female NOD.Cg-Prkdc^scidII2rg^tm1Wji/SzJ mice (NSG mice) at ˜6 weeks old (Jackson Laboratories, ME, USA), were implanted sub-cutaneously (SQ) with 200 μL of the cell suspension to deliver 5×10^6 KMS11-Luc cells SQ in the right flank. Seven days following tumor inoculation, each mouse received an adoptive transfer (AdT) of 10×10^6 of peripheral blood mononuclear cells (PBMCs) in 100 μL via IV injection in the lateral tail vein. The PBMCs were previously isolated from a human leukopak, frozen and stored in Cryostor10 media in vapor phase liquid Nitrogen tank until use. Immediately prior to AdT, PBMCs were thawed and suspended at a concentration of 100×10^6 cells/ml in Hanks Balanced Salt Solution (HBSS).

[2] = KMS11-luc, expanded T cells E:T 3:1, 20 hr

| SMILES | GSI concentration with modest enhancement of bivalent AB3 potency (KMS11-luc cells; [2]) | GSI concentration with significant enhancement of bivalent AB3 potency (KMS11-luc cells; [2]) | shift of bivalent AB3 response curves with increasing GSI concentration (KMS11-luc cells) | sBCMA concentration over time (sBCMA from KMS11 cells) | mBCMA levels over time (mBCMA on KMS11 cells) | GSI concentration with no effect on bivalent AB3 activity (KMS11-luc cells; [2]) | GSI concentration with small effect on bivalent AB3 activity (KMS11-luc cells; [2]) | increase in mBCMA compared to the vehicle control (mBCMA in KMS11 xenograft) | mBCMA levels by 24 hours post last dose (mBCMA in KMS11 xenograft) | time point post last dose through which mBCMA increase was sustained (mBCMA in KMS11 xenograft) | sBCMA levels between 24 and 48 hours post last dose [1] | time post last dose for which sBCMA levels were ablated [1] |
| --- | --- | --- | --- | --- | --- | --- | --- | --- | --- | --- | --- | --- |
| NC(=O)[C@@H](CCC(F)(F)F)N(Cc1ccc(-c2ncon2)cc1F)S(=O)(=O)c1ccc(Cl)cc1 [BMS-708163, (R)-2-((4-chloro-N-(2-fluoro-4-(1,2,4-oxadiazol-3-yl)benzyl)phenyl)sulfonamido)-5,5,5-trifluoropentanamide] | 8 nM | ≥ 31 nM | response curves shifted to the left | – | – | – | – | – | – | – | – | – |
| C[C@H](NC(=O)[C@@H](O)c1cc(F)cc(F)c1)C(=O)N[C@@H]1C(=O)N(C)c2ccccc2-c2ccccc21 [LY411575, (S)-2-((S)-2-(3,5-difluorophenyl)-2-hydroxyacetamido)-N—((S)-5-methyl-6-oxo-6,7-dihydro-5H-dibenzo[b,d]azepin-7-yl)propanamide] | – | ≥ 0.125 nM | response curves shifted to the left | no increase over time | increased over time | ≤ 7.8 pM | 31.2 pM | – | – | – | – | – |
| CCC[C@H](N[C@H]1CCc2cc(F)cc(F)c2C1)C(=O)Nc1cn(C(C)(C)CNCC(C)(C)C)cn1 [PF03084014, (S)-2-(((S)-6,8-difluoro-1,2,3,4-tetrahydronaphthalen-2-yl)amino)-N-(1-(2-methyl-1-(neopentylamino)propan-2-yl)-1H-imidazol-4-yl)pentanamide] | 3 nM | ≥ 12 nM | response curves shifted to the left | no increase over time | increased over time | – | – | 10 fold | dropped back to levels similar to those observed for the vehicle control | 7 h | returning to levels comparable to those observed for the vehicle treated animals | up to 24 hours |
